Where two headings read alike, the source gives them in different places. Positions of bridges follow the written chain, without caps; N, C: chain ends. Residues, ends and D or L forms follow the SMILES beside them.
Assays:
Experiment in all cases: cell-based
[1] = target: T1, hNav1.5 (Homo sapiens, UniProt Q14524)
[2] = target: hNav1.3 (Homo sapiens, UniProt Q9NY46); conditions: IonWorks Quattro; clamped to −110 mV, depolarized to −10 mV, 5 min after compound; n=2; read-out: IWQ Use Nav1.3
[3] = target: T2, hNav1.7 (Homo sapiens, UniProt Q15858); conditions: Nav1.7 Use IC50
T2 sequence (Q15858 whole entry, looked up): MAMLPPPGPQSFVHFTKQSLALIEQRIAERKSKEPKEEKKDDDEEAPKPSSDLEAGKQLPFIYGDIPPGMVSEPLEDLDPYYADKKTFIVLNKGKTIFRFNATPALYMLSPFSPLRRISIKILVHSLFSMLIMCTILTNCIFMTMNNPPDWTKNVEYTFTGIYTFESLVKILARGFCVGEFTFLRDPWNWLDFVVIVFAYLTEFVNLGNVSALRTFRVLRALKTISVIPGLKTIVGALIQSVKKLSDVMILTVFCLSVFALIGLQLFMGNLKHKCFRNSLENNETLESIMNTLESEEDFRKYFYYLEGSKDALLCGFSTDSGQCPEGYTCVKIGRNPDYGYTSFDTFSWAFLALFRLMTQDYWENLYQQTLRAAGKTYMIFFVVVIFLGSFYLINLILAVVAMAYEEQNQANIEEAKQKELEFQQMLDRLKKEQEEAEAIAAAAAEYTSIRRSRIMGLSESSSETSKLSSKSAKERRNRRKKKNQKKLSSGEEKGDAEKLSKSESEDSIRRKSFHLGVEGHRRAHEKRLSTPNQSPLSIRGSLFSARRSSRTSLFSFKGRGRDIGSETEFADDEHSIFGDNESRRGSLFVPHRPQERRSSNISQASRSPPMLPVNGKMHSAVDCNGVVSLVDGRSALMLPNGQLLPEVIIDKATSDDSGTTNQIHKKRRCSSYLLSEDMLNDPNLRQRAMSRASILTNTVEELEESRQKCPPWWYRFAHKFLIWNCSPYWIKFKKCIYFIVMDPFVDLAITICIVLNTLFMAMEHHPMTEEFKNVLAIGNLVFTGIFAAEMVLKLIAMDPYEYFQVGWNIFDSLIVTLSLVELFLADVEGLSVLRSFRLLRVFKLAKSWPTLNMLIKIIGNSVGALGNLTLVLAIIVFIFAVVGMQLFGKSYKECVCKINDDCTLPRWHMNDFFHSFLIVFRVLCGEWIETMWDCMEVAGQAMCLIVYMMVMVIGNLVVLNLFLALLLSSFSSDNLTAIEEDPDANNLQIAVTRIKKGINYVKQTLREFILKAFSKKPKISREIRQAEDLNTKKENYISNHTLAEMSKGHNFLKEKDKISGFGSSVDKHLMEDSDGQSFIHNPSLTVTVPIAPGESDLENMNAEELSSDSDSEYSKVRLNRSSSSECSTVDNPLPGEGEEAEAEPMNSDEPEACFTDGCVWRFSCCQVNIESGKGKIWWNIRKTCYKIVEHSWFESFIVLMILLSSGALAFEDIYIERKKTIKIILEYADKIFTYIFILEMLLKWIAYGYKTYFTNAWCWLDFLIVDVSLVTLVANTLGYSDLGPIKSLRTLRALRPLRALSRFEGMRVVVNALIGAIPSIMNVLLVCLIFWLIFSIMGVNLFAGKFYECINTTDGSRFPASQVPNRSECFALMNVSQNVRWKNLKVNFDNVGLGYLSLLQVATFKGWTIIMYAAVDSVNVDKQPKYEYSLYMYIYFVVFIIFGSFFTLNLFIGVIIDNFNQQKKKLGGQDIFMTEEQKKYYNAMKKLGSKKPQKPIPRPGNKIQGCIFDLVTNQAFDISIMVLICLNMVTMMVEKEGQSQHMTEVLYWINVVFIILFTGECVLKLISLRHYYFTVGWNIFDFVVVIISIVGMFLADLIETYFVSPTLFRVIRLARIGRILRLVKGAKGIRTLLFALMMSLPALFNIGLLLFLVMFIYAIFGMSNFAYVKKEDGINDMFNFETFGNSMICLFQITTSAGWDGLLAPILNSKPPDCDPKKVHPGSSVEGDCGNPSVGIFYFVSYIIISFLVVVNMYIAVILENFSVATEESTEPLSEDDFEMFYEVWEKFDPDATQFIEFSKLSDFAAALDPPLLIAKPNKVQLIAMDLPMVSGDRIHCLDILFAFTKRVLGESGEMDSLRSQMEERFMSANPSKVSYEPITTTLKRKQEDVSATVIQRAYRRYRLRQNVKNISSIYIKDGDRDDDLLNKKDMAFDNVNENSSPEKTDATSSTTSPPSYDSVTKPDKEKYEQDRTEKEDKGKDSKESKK

[4] = target: T1, hNav1.5; remark: listed apart in the source
[5] = target: T2, hNav1.7; assay type: cell-based
[6] = IonWorks Quattro, clamped to −110 mV, depolarized to −10 mV, 5 min after compound, n=2, read-out: IWQ Use Nav1.5
[7] = IonWorks Quattro, clamped to −110 mV, depolarized to −10 mV, 5 min after compound, n=2, read-out: IWQ Use Nav1.7

T1 sequence (Q14524 whole entry, looked up): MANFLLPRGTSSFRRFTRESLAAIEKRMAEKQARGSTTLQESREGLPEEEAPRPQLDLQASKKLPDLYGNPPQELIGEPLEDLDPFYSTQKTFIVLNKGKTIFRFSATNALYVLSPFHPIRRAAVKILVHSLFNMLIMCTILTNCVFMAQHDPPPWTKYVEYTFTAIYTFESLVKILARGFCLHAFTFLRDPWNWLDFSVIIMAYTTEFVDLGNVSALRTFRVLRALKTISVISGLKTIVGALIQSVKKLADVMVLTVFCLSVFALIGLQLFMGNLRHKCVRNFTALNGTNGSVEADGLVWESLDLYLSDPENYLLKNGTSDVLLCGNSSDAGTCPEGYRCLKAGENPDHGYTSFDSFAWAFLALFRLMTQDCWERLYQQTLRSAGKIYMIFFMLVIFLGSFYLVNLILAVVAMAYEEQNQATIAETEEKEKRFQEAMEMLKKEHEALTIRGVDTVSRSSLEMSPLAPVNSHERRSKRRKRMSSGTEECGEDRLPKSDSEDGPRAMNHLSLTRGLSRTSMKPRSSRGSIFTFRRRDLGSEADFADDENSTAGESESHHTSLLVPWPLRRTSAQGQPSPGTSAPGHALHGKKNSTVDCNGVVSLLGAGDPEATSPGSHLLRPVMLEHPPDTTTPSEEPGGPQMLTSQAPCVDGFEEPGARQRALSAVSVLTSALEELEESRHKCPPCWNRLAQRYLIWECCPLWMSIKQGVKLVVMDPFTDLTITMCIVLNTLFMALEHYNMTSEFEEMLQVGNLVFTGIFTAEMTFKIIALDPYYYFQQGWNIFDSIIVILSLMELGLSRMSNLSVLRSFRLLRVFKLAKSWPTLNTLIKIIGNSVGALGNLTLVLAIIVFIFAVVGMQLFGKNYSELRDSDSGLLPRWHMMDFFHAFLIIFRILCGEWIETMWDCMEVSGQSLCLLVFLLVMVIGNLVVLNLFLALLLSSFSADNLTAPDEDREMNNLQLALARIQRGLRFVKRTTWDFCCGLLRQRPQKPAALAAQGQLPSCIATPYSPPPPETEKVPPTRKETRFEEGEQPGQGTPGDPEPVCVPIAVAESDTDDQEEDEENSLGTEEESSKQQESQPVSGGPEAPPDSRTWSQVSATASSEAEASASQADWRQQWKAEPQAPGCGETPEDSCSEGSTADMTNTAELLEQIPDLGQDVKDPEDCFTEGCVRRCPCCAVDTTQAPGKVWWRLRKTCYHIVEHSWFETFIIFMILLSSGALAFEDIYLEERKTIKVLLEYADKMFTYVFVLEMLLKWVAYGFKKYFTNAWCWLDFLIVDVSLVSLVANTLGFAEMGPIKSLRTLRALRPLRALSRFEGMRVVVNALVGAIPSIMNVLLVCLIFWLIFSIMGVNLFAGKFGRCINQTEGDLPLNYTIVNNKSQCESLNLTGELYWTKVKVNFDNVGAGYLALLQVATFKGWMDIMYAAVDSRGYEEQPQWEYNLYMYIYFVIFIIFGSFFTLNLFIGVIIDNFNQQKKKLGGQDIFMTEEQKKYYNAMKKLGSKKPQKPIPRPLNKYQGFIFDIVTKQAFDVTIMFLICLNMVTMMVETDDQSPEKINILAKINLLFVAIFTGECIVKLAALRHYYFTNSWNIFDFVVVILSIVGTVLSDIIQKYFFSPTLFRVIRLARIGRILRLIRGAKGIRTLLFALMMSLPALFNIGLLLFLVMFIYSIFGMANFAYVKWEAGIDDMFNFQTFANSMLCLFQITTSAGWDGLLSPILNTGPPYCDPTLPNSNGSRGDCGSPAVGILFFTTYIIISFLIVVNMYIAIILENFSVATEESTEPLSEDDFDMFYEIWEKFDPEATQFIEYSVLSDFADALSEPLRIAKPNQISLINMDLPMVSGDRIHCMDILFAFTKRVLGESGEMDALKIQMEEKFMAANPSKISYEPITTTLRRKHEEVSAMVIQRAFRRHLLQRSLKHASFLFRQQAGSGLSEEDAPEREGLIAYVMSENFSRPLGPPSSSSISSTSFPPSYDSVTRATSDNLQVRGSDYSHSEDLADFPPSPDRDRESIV

Row | Structure (SMILES) | IC50 [1, 6] | IC50 [2] | IC50 [3] | IC50 [4] | IC50 [5, 7] | IC50 ([1]; IWQ Use Nav1.5) | IC50 ([5]; read-out: IWQ Use Nav1.7) | IC50 [5]
1 | CC[C@H](C)[C@@H]1NC(=O)[C@@H]2CSSC[C@@H]3NC(=O)[C@H](C(C)C)NC(=O)[C@H](CC(C)C)NC(=O)[C@H](CC(N)=O)NC(=O)[C@@H]4CCCN4C(=O)[C@H](CCCNC(=N)N)NC(=O)[C@H](CSSC[C@H](NC(=O)[C@@H](N)CC(=O)O)C(=O)N[C@@H](CCC(=O)O)C(=O)NCC(=O)N[C@@H](Cc4ccccc4)C(=O)N[C@@H](CCSC)C(=O)N[C@@H](CCCNC(=N)N)C(=O)N[C@@H](CCCCN)C(=O)N2)NC(=O)[C@H](CSSC[C@@H](C(=O)N[C@@H](CCCCN)C(=O)N[C@@H](Cc2ccc(O)cc2)C(=O)N[C@H](C(=O)N[C@@H](Cc2ccccc2)C(N)=O)C(C)C)NC(=O)[C@H](Cc2c[nH]c4ccccc24)NC(=O)[C@H](CCCCN)NC(=O)[C@H](Cc2cnc[nH]2)NC(=O)[C@H]([C@@H](C)O)NC(=O)[C@H](CCCNC(=N)N)NC(=O)[C@H](CO)NC3=O)NC(=O)[C@H](CCCCN)NC(=O)[C@H](CC(=O)O)NC(=O)[C@H](CC(N)=O)NC(=O)[C@H](CC(=O)O)NC(=O)[C@@H]2CCCN2C1=O [SEQ ID NO: 19] (H-DCEGFMRKCIPDNDKCCRPNLVCSRTHKWCKYVF-NH2; disulfide 2-17, 9-23, 16-30) | 10500 nM | 830 nM | 41 nM | > 10000 nM |  |  |  | 
2 | CC[C@H](C)[C@@H]1NC(=O)[C@@H]2CSSC[C@@H]3NC(=O)[C@H](C(C)C)NC(=O)[C@H](CC(C)C)NC(=O)[C@H](CC(N)=O)NC(=O)[C@@H]4CCCN4C(=O)[C@H](CCCNC(=N)N)NC(=O)[C@H](CSSC[C@H](NC(=O)[C@@H](N)CC(=O)O)C(=O)N[C@@H](C)C(=O)NCC(=O)N[C@@H](Cc4ccccc4)C(=O)N[C@@H](CCSC)C(=O)N[C@@H](CCCNC(=N)N)C(=O)N[C@@H](CCCCN)C(=O)N2)NC(=O)[C@H](CSSC[C@@H](C(=O)N[C@@H](CCCCN)C(=O)N[C@@H](Cc2ccc(O)cc2)C(=O)N[C@H](C(=O)N[C@@H](Cc2ccccc2)C(N)=O)C(C)C)NC(=O)[C@H](Cc2c[nH]c4ccccc24)NC(=O)[C@H](CCCCN)NC(=O)[C@H](Cc2cnc[nH]2)NC(=O)[C@H]([C@@H](C)O)NC(=O)[C@H](CCCNC(=N)N)NC(=O)[C@H](CO)NC3=O)NC(=O)[C@H](CCCCN)NC(=O)[C@H](CC(=O)O)NC(=O)[C@H](CC(N)=O)NC(=O)[C@H](CC(=O)O)NC(=O)[C@@H]2CCCN2C1=O [SEQ ID NO: 21] (H-DCAGFMRKCIPDNDKCCRPNLVCSRTHKWCKYVF-NH2; disulfide 2-17, 9-23, 16-30) |  | 100 nM | 12 nM | > 10000 nM | 510 nM | 19000 nM |  | 
3 | CC[C@H](C)[C@@H]1NC(=O)[C@@H]2CSSC[C@@H]3NC(=O)[C@H](C(C)C)NC(=O)[C@H](CC(C)C)NC(=O)[C@H](CC(N)=O)NC(=O)[C@@H]4CCCN4C(=O)[C@H](CCCNC(=N)N)NC(=O)[C@H](CSSC[C@H](NC(=O)[C@H](CC(=O)O)NC(=O)[C@H](C)N)C(=O)N[C@@H](CC(C)C)C(=O)NCC(=O)N[C@@H](Cc4ccccc4)C(=O)N[C@@H](CCSC)C(=O)N[C@@H](CCCNC(=N)N)C(=O)N[C@@H](CCCCN)C(=O)N2)NC(=O)[C@H](CSSC[C@@H](C(=O)N[C@@H](CCCCN)C(=O)N[C@@H](Cc2ccc(O)cc2)C(=O)N[C@H](C(=O)N[C@@H](Cc2ccccc2)C(N)=O)C(C)C)NC(=O)[C@H](Cc2c[nH]c4ccccc24)NC(=O)[C@H](CCCCN)NC(=O)[C@H](Cc2c[nH]cn2)NC(=O)[C@H]([C@@H](C)O)NC(=O)[C@H](CCCNC(=N)N)NC(=O)[C@H](CO)NC3=O)NC(=O)[C@H](CCCCN)NC(=O)[C@H](CC(=O)O)NC(=O)[C@H](CC(N)=O)NC(=O)[C@H](CC(=O)O)NC(=O)[C@@H]2CCCN2C1=O [SEQ ID NO: 100] | 19600 nM | 320 nM | 12 nM | 10000 nM |  |  | 370 nM | 
4 | CC[C@H](C)[C@@H]1NC(=O)[C@@H]2CSSC[C@@H]3NC(=O)[C@H](C(C)C)NC(=O)[C@H](CC(C)C)NC(=O)[C@H](CC(N)=O)NC(=O)[C@@H]4CCCN4C(=O)[C@H](CCCNC(=N)N)NC(=O)[C@H](CSSC[C@H](NC(=O)[C@@H](N)CC(=O)O)C(=O)N[C@@H](CC(C)C)C(=O)NCC(=O)N[C@@H](Cc4ccccc4)C(=O)N[C@@H](Cc4c[nH]c5ccccc45)C(=O)N[C@@H](CCCNC(=N)N)C(=O)N[C@@H](CCCCN)C(=O)N2)NC(=O)[C@H](CSSC[C@@H](C(=O)N[C@@H](CCCCN)C(=O)N[C@@H](Cc2ccc(O)cc2)C(=O)N[C@H](C(=O)N[C@@H](Cc2ccccc2)C(N)=O)C(C)C)NC(=O)[C@H](Cc2c[nH]c4ccccc24)NC(=O)[C@H](CCCCN)NC(=O)[C@H](Cc2cnc[nH]2)NC(=O)[C@H]([C@@H](C)O)NC(=O)[C@H](CCCNC(=N)N)NC(=O)[C@H](CO)NC3=O)NC(=O)[C@H](CCCCN)NC(=O)[C@H](CC(=O)O)NC(=O)[C@H](CC(N)=O)NC(=O)[C@H](CC(=O)O)NC(=O)[C@@H]2CCCN2C1=O [SEQ ID NO: 170] (H-DCLGFWRKCIPDNDKCCRPNLVCSRTHKWCKYVF-NH2; disulfide 2-17, 9-23, 16-30) | 3580 nM | 2 nM | 22 nM | 3670 nM |  |  |  | 13 nM
5 | CC[C@H](C)[C@@H]1NC(=O)[C@@H]2CSSC[C@@H]3NC(=O)[C@H](C(C)C)NC(=O)[C@H](CC(C)C)NC(=O)[C@H](CC(N)=O)NC(=O)[C@@H]4CCCN4C(=O)[C@H](CCCNC(=N)N)NC(=O)[C@H](CSSC[C@H](NC(=O)[C@@H](N)CC(=O)O)C(=O)N[C@@H](CC(C)C)C(=O)NCC(=O)N[C@@H](Cc4ccccc4)C(=O)N4CCC[C@H]4C(=O)N[C@@H](CCCNC(=N)N)C(=O)N[C@@H](CCCCN)C(=O)N2)NC(=O)[C@H](CSSC[C@@H](C(=O)N[C@@H](CCCCN)C(=O)N[C@@H](Cc2ccc(O)cc2)C(=O)N[C@H](C(=O)N[C@@H](Cc2ccccc2)C(N)=O)C(C)C)NC(=O)[C@H](Cc2c[nH]c4ccccc24)NC(=O)[C@H](CCCCN)NC(=O)[C@H](Cc2c[nH]cn2)NC(=O)[C@H]([C@@H](C)O)NC(=O)[C@H](CCCNC(=N)N)NC(=O)[C@H](CO)NC3=O)NC(=O)[C@H](CCCCN)NC(=O)[C@H](CC(=O)O)NC(=O)[C@H](CC(N)=O)NC(=O)[C@H](CC(=O)O)NC(=O)[C@@H]2CCCN2C1=O [SEQ ID NO: 283] (H-DCLGFPRKCIPDNDKCCRPNLVCSRTHKWCKYVF-NH2; disulfide 2-17, 9-23, 16-30) | 10000 nM | 760 nM | 42 nM | 10000 nM | 790 nM |  |  | 
6 | CC[C@H](C)[C@@H]1NC(=O)[C@@H]2CSSC[C@@H]3NC(=O)[C@H](C(C)C)NC(=O)[C@H](CC(C)C)NC(=O)[C@H](CC(N)=O)NC(=O)[C@@H]4CCCN4C(=O)[C@H](CCCNC(=N)N)NC(=O)[C@H](CSSC[C@H](NC(=O)[C@@H](N)CC(=O)O)C(=O)N[C@@H](CC(C)C)C(=O)NCC(=O)N[C@@H](C(C)C)C(=O)N[C@@H](CC(C)C)C(=O)N[C@@H](CCCNC(=N)N)C(=O)N[C@@H](CCCCN)C(=O)N2)NC(=O)[C@H](CSSC[C@@H](C(=O)N[C@@H](CCCCN)C(=O)N[C@@H](Cc2ccc(O)cc2)C(=O)N[C@H](C(=O)N[C@@H](Cc2ccccc2)C(N)=O)C(C)C)NC(=O)[C@H](Cc2c[nH]c4ccccc24)NC(=O)[C@H](CCC(=O)O)NC(=O)[C@H](Cc2c[nH]cn2)NC(=O)[C@H]([C@@H](C)O)NC(=O)[C@H](CCCNC(=N)N)NC(=O)[C@H](CO)NC3=O)NC(=O)[C@H](CCCCN)NC(=O)[C@H](CC(=O)O)NC(=O)[C@H](CC(N)=O)NC(=O)[C@H](CC(=O)O)NC(=O)[C@@H]2CCCN2C1=O [[Val5;Leu6;Glu28]GpTx-1(1-34)] (H-DCLGVLRKCIPDNDKCCRPNLVCSRTHEWCKYVF-NH2; disulfide 2-17, 9-23, 16-30) |  |  | 86 nM | > 10000 nM |  |  |  | 
7 | CC[C@H](C)[C@@H]1NC(=O)[C@@H]2CSSC[C@@H]3NC(=O)[C@H](C(C)C)NC(=O)[C@H](CC(C)C)NC(=O)[C@H](CC(N)=O)NC(=O)[C@@H]4CCCN4C(=O)[C@H](CCCNC(=N)N)NC(=O)[C@H](CSSC[C@H](NC(=O)[C@@H](N)CC(=O)O)C(=O)N[C@@H](CC(C)C)C(=O)NCC(=O)N[C@@H](C(C)C)C(=O)N[C@@H](CC(C)C)C(=O)N[C@@H](CCCNC(=N)N)C(=O)N[C@@H](CCCCN)C(=O)N2)NC(=O)[C@H](CSSC[C@@H](C(=O)N[C@@H](CCCCN)C(=O)N[C@@H](Cc2ccc(O)cc2)C(=O)N[C@H](C(=O)N[C@@H](Cc2ccccc2)C(N)=O)C(C)C)NC(=O)[C@H](Cc2c[nH]c4ccccc24)NC(=O)[C@H](CCCCN)NC(=O)[C@H](Cc2c[nH]cn2)NC(=O)[C@H]([C@@H](C)O)NC(=O)[C@H](CCCNC(=N)N)NC(=O)[C@H](CO)NC3=O)NC(=O)[C@H](CCCCN)NC(=O)[C@H](CC(=O)O)NC(=O)[C@H](CC(N)=O)NC(=O)[C@H](CC(=O)O)NC(=O)[C@@H]2CCCN2C1=O [[Val5;Leu6]GpTx-1(1-34)] (H-DCLGVLRKCIPDNDKCCRPNLVCSRTHKWCKYVF-NH2; disulfide 2-17, 9-23, 16-30) |  |  | 200 nM | > 10000 nM |  |  |  | 

Reference: patent US9340590B2 (priority 2011, dated 2016)
